Data published in patent publication US20220250063A1, “ASSAY SYSTEM, METHODS, AND MULTI-WELL PLATE FOR GAS STIMULATION OF BIOLOGICAL CELLS, PROTEINS OR MATERIALS” (Koniku Inc., priority 2021, published 2022).

Tested on: odorant receptor of the modified cells
Assay: Gas stimulation of modified cells expressing different odorant receptors in a 96 well microplate, fluorescence recorded by camera
Type: cell-based
Settings: sample as gas in the gas channel of 96 well microplate 80; for fluorescent response of the responding wells: different ORs in different wells, responding wells (81A: one well; 81C: four wells; 81E: two wells); for fluorescent response of all of the other wells: remaining dark wells (81B: 95 wells; 81D: 92 wells; 81F: 94 wells)
Source text: In a representative example of operation, an empty microplate is placed in the hatch 120 by a technician or automatically using a microplate loader/unloader. The microplate is moved to the disk support, with the wells aligned with the pipettes. The pipetting head holding the pipettes is lowered to position the tips of the pipettes in or near the wells. The pipettes deposit liquid containing cells into the wells. Inlet and outlet gas nozzles or fittings engage the gas channel inlet and outlet in the microplate. In some embodiments, there are more than one inlets and outlets that correspond to the number of channels and number of samples injected. Gas containing a VOC or other candidate molecule or compound sample is injected through the gas channel of the microplate. This may be done manually or via automation.
If the VOC or other candidate molecule or compound in the sample binds and activates the odorant receptor expressed by the cells, a signal is emitted (e.g., emission of fluorescent or luminescent light). The signal is detected by the camera 128 via the optical unit 126. The computer 138 analyzes and records the location (i.e., the well number or position), the intensity, time duration, color, and/or other parameters of the fluorescent light, along with data on the VOC or other candidate molecule or compound momentarily passing through the microplate. The computer 138 may calculate the mean of the pixels for each well in each of the images.
FIG. 14 is an image as recorded by the camera 128 with a sample of benzaldehyde provided into the gas channel of a 96 well microplate 80.
The microplate 80 shown in FIGS. 14-16 has different cells in different wells. As shown, the odorant receptors of different cells bind to different compounds. In each well of the 96 well microplate 80, the cells expressed the same OR. Different ORs were provided into different wells. […] This allows determination of which ORs may best detect menthol. It may also allow for genetically fine tuning the receptors.

CCCCCc1ccco1 [2-pentylfuran]
fluorescent response of the responding wells: strong fluorescent responses
fluorescent response of all of the other wells: no fluorescent response

CC1CCC(C(C)C)C(O)C1 (stereo not drawn) [menthol]
fluorescent response of the responding wells: strong fluorescent responses
fluorescent response of all of the other wells: no fluorescent response

O=Cc1ccccc1 [benzaldehyde]
fluorescent response of the responding wells: strongly fluorescing
fluorescent response of all of the other wells: not at all
